Data taken from article PMC10321576, “Cyclic peptides target the aromatic cage of a PHD-finger reader domain to modulate epigenetic protein function” (Chemical Science, 2023).
Peptide text beside a SMILES is read from it.

Biological target: T1, KDM7B PHD-finger (Homo sapiens, UniProt Q9UPP1)
T1 construct: KDM7B 1-66; His-tag (C); made in house
T1 sequence (Q9UPP1 1-66 isoform Q9UPP1-2): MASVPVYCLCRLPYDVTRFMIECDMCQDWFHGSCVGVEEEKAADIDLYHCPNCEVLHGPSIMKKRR
Experiment: Protein NMR 1H-15N HSQC chemical shift perturbation
Type: binding
Text: To better elucidate OC9 interactions at a single residue level, we conducted protein NMR studies using isotopically labelled PHD-finger.[48] Comparison of ^1H–^15N HSQC spectra for isotopically labelled apo and OC9-bound protein (Fig. 4a), independently assigned using ^13C,^15N 3D experiments (Fig. S21, NMR ESI ^†), identified 24 out of 66 protein residues with significant (standard deviation, s > 1) chemical shift perturbation (CSP, Δδ) of their backbone amides (Fig. 4b).
(a) ^1H–^15N HSQC of KDM7B PHD-finger in the apo (black) or bound forms with OC9 (purple, 1 : 1) or H3_1–21K4me3 (green, 3 : 1). (b) ^1H and ^15N chemical shift changes for apo vs. + OC9 were combined and weighted to give chemical shift perturbation (CSP) (Δδ) values. Standard deviation (σ) of Δδ are indicated (>1 pink, >2 purple). (c) TALOS+ predicts similar secondary structure elements in apo and OC9-bound solution protein complexes (light grey) to those found in PDB ID 3KV4 (dark grey). […] (e) Shielded ^1H-NMR signals centred around −0.5 ppm belonging to the OC9 V10 γ-methyl groups are observed in some OC9–PHD complexes, but not in apo protein, or complexes with OC9 V10A and OC9 V10DV. The V10^OC9 γ-methyl signals have NOE interactions (black semi-circles) with the W29^PHD indole, which itself is shielded upon binding of OC9 (indicated by ΔδH values).

## CC(C)[C@@H]1NC(=O)[C@H](CO)NC(=O)[C@@H]2CCCN2C(=O)[C@H](Cc2ccc(O)cc2)NC(=O)[C@@H]2CCCN2C(=O)[C@H](Cc2c[nH]cn2)NC(=O)[C@H]([C@@H](C)O)NC(=O)[C@H](C)NC(=O)[C@H](Cc2ccc(O)cc2)NC(=O)[C@H](Cc2ccc(O)cc2)NC(=O)CSC[C@@H](C(N)=O)NC(=O)[C@H]([C@@H](C)O)NC(=O)[C@H](CCCNC(=N)N)NC(=O)[C@H](Cc2ccccc2)NC1=O [L3A] (HELM PEPTIDE1{[O=C(C[*:3])[*:2]].Y.Y.A.T.H.P.Y.P.S.V.F.R.T.C.[am]}$PEPTIDE1,PEPTIDE1,1:R3-15:R3$$$V2.0; C-terminus assumed)
Residue Ala2 amide 1H-15N, Free PHD vs PHD+peptide
  CSP Ala2: 0.0068
Residue Ala2 amide, PHD+OC9 vs PHD+OC9 L3A
  CSP Ala2, OC9 vs OC9 L3A: 0.0102
Residue Ala42 amide 1H-15N, Free PHD vs PHD+peptide
  CSP Ala42: 0.4335
Residue Ala42 amide, PHD+OC9 vs PHD+OC9 L3A
  CSP Ala42, OC9 vs OC9 L3A: 0.0214
Residue Ala43 amide 1H-15N, Free PHD vs PHD+peptide
  CSP Ala43: 0.4214
Residue Ala43 amide, PHD+OC9 vs PHD+OC9 L3A
  CSP Ala43, OC9 vs OC9 L3A: 0.0343
Residue Arg11 amide 1H-15N, Free PHD vs PHD+peptide
  CSP Arg11: 0.0169
Residue Arg11 amide, PHD+OC9 vs PHD+OC9 L3A
  CSP Arg11, OC9 vs OC9 L3A: 0.0087
Residue Arg18 amide 1H-15N, Free PHD vs PHD+peptide
  CSP Arg18: 0.1337
Residue Arg18 amide, PHD+OC9 vs PHD+OC9 L3A
  CSP Arg18, OC9 vs OC9 L3A: 0.0146
Residue Arg65 amide 1H-15N, Free PHD vs PHD+peptide
  CSP Arg65: 0.0010
Residue Arg65 amide, PHD+OC9 vs PHD+OC9 L3A
  CSP Arg65, OC9 vs OC9 L3A: 0.0115
Residue Arg66 amide 1H-15N, Free PHD vs PHD+peptide
  CSP Arg66: 0.0045
Residue Arg66 amide, PHD+OC9 vs PHD+OC9 L3A
  CSP Arg66, OC9 vs OC9 L3A: 0.0034
Residue Asn52 amide 1H-15N, Free PHD vs PHD+peptide
  CSP Asn52: 0.0619
Residue Asn52 amide, PHD+OC9 vs PHD+OC9 L3A
  CSP Asn52, OC9 vs OC9 L3A: 0.0178
Residue Asp15 amide 1H-15N, Free PHD vs PHD+peptide
  CSP Asp15: 0.2511
Residue Asp15 amide, PHD+OC9 vs PHD+OC9 L3A
  CSP Asp15, OC9 vs OC9 L3A: 0.0129
Residue Asp24 amide 1H-15N, Free PHD vs PHD+peptide
  CSP Asp24: 0.0765
Residue Asp24 amide, PHD+OC9 vs PHD+OC9 L3A
  CSP Asp24, OC9 vs OC9 L3A: 0.0087
Residue Asp28 amide 1H-15N, Free PHD vs PHD+peptide
  CSP Asp28: 0.1850
Residue Asp28 amide, PHD+OC9 vs PHD+OC9 L3A
  CSP Asp28, OC9 vs OC9 L3A: 0.0277
Residue Asp44 amide 1H-15N, Free PHD vs PHD+peptide
  CSP Asp44: 0.1299
Residue Asp44 amide, PHD+OC9 vs PHD+OC9 L3A
  CSP Asp44, OC9 vs OC9 L3A: 0.0065
Residue Asp46 amide 1H-15N, Free PHD vs PHD+peptide
  CSP Asp46: 0.1937
Residue Asp46 amide, PHD+OC9 vs PHD+OC9 L3A
  CSP Asp46, OC9 vs OC9 L3A: 0.0214
Residue Cys8 amide 1H-15N, Free PHD vs PHD+peptide
  CSP Cys8: 0.2230
Residue Cys8 amide, PHD+OC9 vs PHD+OC9 L3A
  CSP Cys8, OC9 vs OC9 L3A: 0.0115
Residue Cys10 amide 1H-15N, Free PHD vs PHD+peptide
  CSP Cys10: 0.0457
Residue Cys10 amide, PHD+OC9 vs PHD+OC9 L3A
  CSP Cys10, OC9 vs OC9 L3A: 0.0102
Residue Cys23 amide 1H-15N, Free PHD vs PHD+peptide
  CSP Cys23: 0.1510
Residue Cys23 amide, PHD+OC9 vs PHD+OC9 L3A
  CSP Cys23, OC9 vs OC9 L3A: 0.0210
Residue Cys26 amide 1H-15N, Free PHD vs PHD+peptide
  CSP Cys26: 0.1657
Residue Cys26 amide, PHD+OC9 vs PHD+OC9 L3A
  CSP Cys26, OC9 vs OC9 L3A: 0.0115
Residue Cys34 amide 1H-15N, Free PHD vs PHD+peptide
  CSP Cys34: 0.0274
Residue Cys34 amide, PHD+OC9 vs PHD+OC9 L3A
  CSP Cys34, OC9 vs OC9 L3A: 0.0065
Residue Cys50 amide 1H-15N, Free PHD vs PHD+peptide
  CSP Cys50: 0.0600
Residue Cys50 amide, PHD+OC9 vs PHD+OC9 L3A
  CSP Cys50, OC9 vs OC9 L3A: 0.0129
Residue Cys53 amide 1H-15N, Free PHD vs PHD+peptide
  CSP Cys53: 0.0573
Residue Cys53 amide, PHD+OC9 vs PHD+OC9 L3A
  CSP Cys53, OC9 vs OC9 L3A: 0.0065
Residue Gln27 amide 1H-15N, Free PHD vs PHD+peptide
  CSP Gln27: 0.1418
Residue Gln27 amide, PHD+OC9 vs PHD+OC9 L3A
  CSP Gln27, OC9 vs OC9 L3A: 0.0110
Residue Glu22 amide 1H-15N, Free PHD vs PHD+peptide
  CSP Glu22: 0.1432
Residue Glu22 amide, PHD+OC9 vs PHD+OC9 L3A
  CSP Glu22, OC9 vs OC9 L3A: 0.0223
Residue Glu38 amide 1H-15N, Free PHD vs PHD+peptide
  CSP Glu38: 0.1564
Residue Glu38 amide, PHD+OC9 vs PHD+OC9 L3A
  CSP Glu38, OC9 vs OC9 L3A: 0.0388
Residue Glu39 amide 1H-15N, Free PHD vs PHD+peptide
  CSP Glu39: 0.2246
Residue Glu39 amide, PHD+OC9 vs PHD+OC9 L3A
  CSP Glu39, OC9 vs OC9 L3A: 0.0231
Residue Glu40 amide 1H-15N, Free PHD vs PHD+peptide
  CSP Glu40: 0.1065
Residue Glu40 amide, PHD+OC9 vs PHD+OC9 L3A
  CSP Glu40, OC9 vs OC9 L3A: 0.0110
Residue Glu54 amide 1H-15N, Free PHD vs PHD+peptide
  CSP Glu54: 0.0548
Residue Glu54 amide, PHD+OC9 vs PHD+OC9 L3A
  CSP Glu54, OC9 vs OC9 L3A: 0.0034
Residue Gly32 amide 1H-15N, Free PHD vs PHD+peptide
  CSP Gly32: 0.1585
Residue Gly32 amide, PHD+OC9 vs PHD+OC9 L3A
  CSP Gly32, OC9 vs OC9 L3A: 0.0220
Residue Gly36 amide 1H-15N, Free PHD vs PHD+peptide
  CSP Gly36: 0.1019
Residue Gly36 amide, PHD+OC9 vs PHD+OC9 L3A
  CSP Gly36, OC9 vs OC9 L3A: 0.0055
Residue Gly58 amide 1H-15N, Free PHD vs PHD+peptide
  CSP Gly58: 0.0491
Residue Gly58 amide, PHD+OC9 vs PHD+OC9 L3A
  CSP Gly58, OC9 vs OC9 L3A: 0.0055
Residue His31 amide 1H-15N, Free PHD vs PHD+peptide
  CSP His31: 0.2104
Residue His31 amide, PHD+OC9 vs PHD+OC9 L3A
  CSP His31, OC9 vs OC9 L3A: 0.0065
Residue His49 amide 1H-15N, Free PHD vs PHD+peptide
  CSP His49: 0.0983
